The values below come from BindingDB's records for doi:10.1021/jm970373j (Parke-Davis Pharmaceutical Research, 1998).

pIC50: −log10 of the molar value.

The experiment deals with Gastrin/cholecystokinin type B receptor (Cavia porcellus). The experiment is described as follows: Compound was evaluated for functional activity on Cholecystokinin type B receptor (CCK-B) receptor carried out on guinea pig stomach cells.
For orientation: pIC50 means −log10 of the IC50, conventionally taken in molar units. Lower therefore signals a high IC50. `CCOC(=O)c1cccc(NC(=O)NNc2nc3ccccc3c(=O)n2-c2cccc(OC(C)C)c2)c1` [N-(3-ethylesterbenzoicacid)-2-[3,4-dihydro-3-[(3-Isopropoxy)phenyl]-4-oxo-2-quinazolinyl]hydrazinecarboxamide] had a negative-log IC50 (pIC50) of 7.66. Take `CCOC(=O)c1cccc(NC(=O)NNc2nc3ccccc3c(=O)n2-c2ccc(Cl)cc2)c1` [N-(3-ethylesterbenzoicacid)-2-[3,4-dihydro-3-[(4-chloro)-phenyl]-4-oxo-2-quinazolinyl]hydrazinecarboxamide]: the negative logarithm of the IC50 (pIC50) is 7.48. For the compound `CC(C)Oc1cccc(-n2c(NNC(=O)Nc3ccc(Br)cc3)nc3ccccc3c2=O)c1` [N-(4-Bromophenyl)-2-[3,4-dihydro-3-[3-(1-methylethoxy)phenyl]-4-oxo-2-quinazolinyl]hydrazinecarboxamide], the negative logarithm of the IC50 (pIC50) is 7.27.
